Experimental data: patent US20150252329A1, “METHODS AND APPARATUS FOR CULTURING CILIATED CELLS” (THE UNIVERSITY OF NORTH CAROLINA AT CHAPEL HILL, priority 2012, published 2015)

Test system: human airway epithelial cells
Assay: CBF and MCT speed of HAE cells cultured in the MCTD after stimulation by ATPγS
Type: cell-based
Settings: HAE cell cultures with circular MCT in the MCTD; 1 mM ATPγS in buffer added to apical surface; average of four experiments/donors; p<0.05 vs carrier and baseline
Excerpt: An MCT culturing device (MCTD) and the MCT system (MCTS) generally configured as shown for the MCTD 100 and MCTS 10 were constructed. The MCTD was constructed on a 30 mm Millicell™ cell culture insert (Millipore, Ireland). The base of an approximately 15 mm diameter central cylinder of cell culture compatible material (nylon, polystyrene) was attached to the center interior of the cell culture insert with an inert, silicone-based sealer. The approximately 4.0 mm outer ring or track defined in the bottom of the cell culture insert between the central cylinder and the cell culture insert was then coated with human Type IV collagen at ˜90 μg/cm^2, air-dried, and UV-irradiated. […] Cultures were examined at the time of media change and the extent of ciliation and the development of continuous, circular transport was recorded. […] High speed videos were recorded from four equally spaced positions around the MCTD. Ciliary beat frequency (CBF) was determined by whole field analysis using the SAVA™ software program (Sisson, Stoner et al. 2003), and the speed and direction of particle transport were determined by tracking particles of debris in the mucus. Alternatively, a small volume of fluid (0.5 μl) containing fluorescent beads was added to the mucus layer, and after equilibration (5-10 minutes), the motion of the fluorescent beads was recorded and analyzed using fluorescent microscopy. […]

## Nc1ncnc2c1ncn2[C@@H]1O[C@H](COP(=O)(O)OP(=O)(O)OP(O)(O)=S)[C@@H](O)[C@H]1O [ATPγS]
  MCT speed (mucociliary transport): significantly increased
  ciliary beat frequency (CBF): significantly increased
